This note sets out measurements from patent US9428465B2, “Acid ceramidase inhibitors and their use as medicaments” (FONDAZIONE ISTITUTO ITALIANO DI TECHNOLOGIA, priority 2012, dated 2016).

SMILES strings stand for the structures.

By inhibition is commonly meant how much of the control response was suppressed. One may read the IC50 as the concentration at which inhibition is half-maximal.

The target of the first assay is rat acid ceramidase (rAC) (Rattus norvegicus (Rat), UniProt Q6P7S1). Kind of assay: Rat acid ceramidase (rAC) enzymatic assay, LC/MS of lauric acid. It is filed as biochemical. The settings on record: at 0.3 μM; read-out: rAC percent inhibition. How it is done: A lysosomal rat acid ceramidase (rAC) protein preparation was obtained from cells stably expressing rAC resuspended in 20 mM Tris HCl (pH 7.5) with 0.32 M sucrose. Samples were sonicated and centrifuged at 800×g for 15 min at 4° C. Supernatants were then centrifuged at 12,000×g for 30 min at 4° C. Pellets were re-suspended in PBS pH 7.4 and subjected to 2 freeze-thaw cycles at −80° C. The suspension was finally centrifuged at 105,000×g for 1 hr at 4° C. and the supernatant containing rAC was then used in the enzymatic assay.
Chain of rat acid ceramidase (rAC) (Q6P7S1 142-394): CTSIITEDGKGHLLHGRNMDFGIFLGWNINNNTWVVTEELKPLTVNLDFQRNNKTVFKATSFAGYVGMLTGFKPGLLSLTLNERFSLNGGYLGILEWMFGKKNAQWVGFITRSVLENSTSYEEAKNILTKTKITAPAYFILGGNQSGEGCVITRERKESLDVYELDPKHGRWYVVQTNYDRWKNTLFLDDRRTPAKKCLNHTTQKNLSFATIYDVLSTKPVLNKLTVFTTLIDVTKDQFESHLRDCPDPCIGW
Chain of rat acid ceramidase (rAC) (Q6P7S1 21-141): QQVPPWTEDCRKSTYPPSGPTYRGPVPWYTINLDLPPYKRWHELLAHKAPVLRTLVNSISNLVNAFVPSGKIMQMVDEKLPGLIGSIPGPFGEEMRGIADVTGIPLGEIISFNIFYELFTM
r-AC protein samples were pre-incubated with various concentrations of test compounds or vehicle control in 100 mM NaH2PO4/citrate buffer pH 4.5, 0.1% Nonidet P-40, 3 mM DTT for 30 min at 37° C. Samples were incubated with 100 μM N-lauroyl ceramide (Nu-Chek Prep, Elysian, Minn.) at 37° for 30 min. The reaction was stopped by addition of a mixture of chloroform/methanol (2:1 vol/vol) containing 1 nmol of heptadecanoic acid (HDA; NuChek Prep). The organic phases were collected, dried under nitrogen, and analyzed by LC/MS in the negative-ion mode using heptadecanoic acid (HDA) as internal standard (m/z=199 for lauric acid, m/z=269 for HDA). HDA was eluted on an XDB Eclipse C18 column isocratically at 2.2 mL/min for 1 min with a solvent mixture of 95% methanol and 5% water, both containing 0.25% acetic acid, and 5 mM ammonium acetate. The column temperature was 50° C. Electrospray ionization (ESI) was in the negative mode, capillary voltage was 4 kV, and fragmentor voltage was 100 V. Nitrogen was used as drying gas at a flow rate of 13 L/min and at a temperature of 350° C. Nebulizer pressure was set at 60 psi. We monitored [M-H]− in the selected-ion monitoring (SIM) mode using HDA as internal standard.
Inhibition of rAC activity was calculated as a reduction of lauric acid in the samples compared to vehicle controls. Median inhibitory concentration (IC50) values were calculated by non-linear regression analysis of log [concentration]/inhibition curves using. GraphPad Prism 5 (GraphPad Software, Inc., CA, USA) applying a standard slope curve fitting.
For the molecule `O=C(NCCCCc1ccccc1)n1ccc(=O)[nH]c1=O` [Example 1, 2,4-dioxo-N-(4-phenylbutyl)pyrimidine-1-carboxamide], the inhibition at 0.3 µM stood at 65%.

The same assay, now with this note: rat acid ceramidase, 100 μM N-lauroyl ceramide, pH 4.5.
Molecule `CCCCCCNC(=O)n1cc(N2CCN(C)CC2)c(=O)[nH]c1=O` [Example 13, N-hexyl-5-(4-methylpiperazin-1-yl)-2,4-dioxo-pyrimidine-1-carboxamide] returned an IC50 of 1400 nM.
`CCCCCCNC(=O)n1cc(CO)c(=O)[nH]c1=O` [Example 7, N-hexyl-5-(hydroxymethyl)-2,4-dioxo-pyrimidine-1-carboxamide] yielded an IC50 of 420 nM.
The molecule `CCCCCCNC(=O)n1cc(N2CCOCC2)c(=O)[nH]c1=O` [Example 12, N-hexyl-5-morpholino-2,4-dioxo-pyrimidine-1-carboxamide] showed an IC50 of 880 nM.
Regarding `CCCCCCNC(=O)n1cc(Cl)c(=O)[nH]c1=O` [Example 3, 5-Chloro-N-hexyl-2,4-dioxo-pyrimidine-1-carboxamide], the midpoint of inhibition, the IC50, lay at 67 nM.
On to `CCCCCCNC(=O)n1cc(I)c(=O)[nH]c1=O` [Example 8, N-hexyl-5-iodo-2,4-dioxo-pyrimidine-1-carboxamide], for which the IC50 amounted to 147 nM.
Turning to `CCCCCCNC(=O)n1cc(OC)c(=O)[nH]c1=O` [Example 9, N-hexyl-5-methoxy-2,4-dioxo-pyrimidine-1-carboxamide], the IC50 was 1100 nM.
In the case of `CCCCCCNC(=O)n1cc(C)c(=O)n(CC2CC2)c1=O` [Example 16, 3-(cyclopropylmethyl)-N-hexyl-5-methyl-2,4-dioxo-pyrimidine-1-carboxamide], half-maximal inhibition (IC50) required 40 nM.
Molecule `CCCCCCNC(=O)n1cc(NC)c(=O)[nH]c1=O` [Example 11, N-hexyl-5-methylamino-2,4-dioxo-pyrimidine-1-carboxamide] had an IC50 of 3400 nM.
`CCCCCCCCNC(=O)n1cc(C(F)(F)F)c(=O)[nH]c1=O` [Example 32, N-octyl-2,4-dioxo-5-(trifluoromethyl)pyrimidine-1-carboxamide]: the IC50 was determined as 7 nM.
Same read-out and setting: the figure for `CCCCCCNC(=O)n1cc(N(C)Cc2ccccc2)c(=O)[nH]c1=O` [Example 10, 5-(benzyl(methyl)amino)-N-hexyl-2,4-dioxo-pyrimidine-1-carboxamide] is 5500 nM.

A further assay deals with human acid ceramidase (hAC) (Homo sapiens (Human), UniProt Q13510). The assay can be described thus: Human acid ceramidase (hAC) activity assay, UPLC/MS of lauric acid. It is filed as biochemical. The settings on record: at 0.5 μM; read-out: hAC percent inhibition. How it is done: Human acid ceramidase (hAC) cDNA was purchased from Open Biosystem (clone ID 3923451) and subcloned in the mammalian expression vector pCDNA3.1, containing the neomycin resistance gene. The cell line HEK293 was transfected with hAC-pCDNA3.1 construct using JetPEI reagent (Polypus Transfection™, Illkirch, FR) following the manufacturer instructions. A stable cell line of hAC-overexpressing HEK293 was generated by selection with G418 (1 mg/ml) and cell clones were derived by limited dilution plating. hAC-expressing clones were analyzed by western blot.
Chain of human acid ceramidase (hAC) (Q13510 143-395): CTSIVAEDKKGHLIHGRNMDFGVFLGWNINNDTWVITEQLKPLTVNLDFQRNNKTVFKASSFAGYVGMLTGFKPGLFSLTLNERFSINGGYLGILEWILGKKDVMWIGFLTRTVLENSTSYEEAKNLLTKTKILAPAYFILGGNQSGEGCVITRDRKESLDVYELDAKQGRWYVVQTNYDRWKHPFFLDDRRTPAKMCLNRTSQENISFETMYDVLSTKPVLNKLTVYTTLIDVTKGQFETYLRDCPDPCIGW
Chain of human acid ceramidase (hAC) (Q13510 22-142): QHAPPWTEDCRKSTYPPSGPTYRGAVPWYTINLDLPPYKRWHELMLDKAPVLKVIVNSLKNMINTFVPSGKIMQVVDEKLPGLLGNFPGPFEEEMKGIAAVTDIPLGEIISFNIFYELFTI
Hek293 cells overexpressing hAC were suspended in 20 mM Tris HCl (pH 7.5) containing 0.32M sucrose, sonicated and centrifuged at 800×g for 15 min at 4° C. The supernatants were centrifuged again at 12,000×g for 30 min at 4° C. The pellets were suspended in phosphate-buffered saline (PBS) and subjected to 2 freeze-thaw cycles at −80° C. The suspensions were centrifuged at 105,000×g for 1 h at 4° C. The supernatants containing hAC were kept at −80° C. until use. Protein concentration was measured using the bicinchoninic acid (BCA) assay (Pierce).
A hAC protein preparation (10 μg) was preincubated with inhibitors (final DMSO concentration 1%) in assay buffer (100 mM sodium phosphate, 0.1% Nonidet P-40, 150 mM NaCl, 3 mM DTT, 100 mM sodium citrate, pH 4.5) for 30 min at 37° C. Reactions were started by the addition of 50 μM N-lauroyl ceramide (Nu-Chek Prep, Elysian, Minn.) and carried on for 30 min at 37° C. Reactions were stopped by addition of a mixture of chloroform/methanol (2:1, vol/vol) containing 1 nmol 11-lauroleic acid (NuChek Prep). The organic phases were collected, dried under nitrogen and analyzed by UPLC/MS (Acquity, Waters) in the negative-ion mode monitoring the reaction product (lauric acid, m/z=199) using 11-lauroleic acid as internal standard.
Lipids were eluted on an Acquity UPLC BEH C18 column (50 mm length, 2.1 mm i.d., 1.7 μm pore size, Waters) column at 0.5 mL-min^−1 for 1.5 min with a gradient of acetonitrile (CH3CN) and water, both containing 0.25% acetic acid and 5 mM ammonium acetate (70% to 100% CH3CN in 0.5 min, 100% CH3CN for 0.5 min, 70% CH3CN for 0.4 min). The column temperature was 40° C. Electrospray ionization (ESI) was in the negative mode, capillary voltage was 1 kV and cone voltage was 50 V. Nitrogen was used as drying gas at a flow rate of 500 L/h and at a temperature of 400° C.
The [M-H]^− ion was monitored in the selected-ion monitoring mode (m/z values: lauric acid 199, 11-lauroleic acid […]). Calibration curves were generated with authentic lauric acid (Nu Check Prep). Inhibition of acid ceramidase activity was calculated as reduction of lauric acid in the samples compared to vehicle controls. IC50 values were calculated by non-linear regression analysis of log [concentration]/inhibition curves using GraphPad Prism 5 (GraphPad Software Inc., CA, USA) applying a standard slope curve fitting.
Take `O=C(NCCCCCc1ccc(F)cc1)n1ccc(=O)[nH]c1=O` [Example 34, N-[5-(4-fluorophenyl)pentyl]-2,4-dioxo-pyrimidine-1-carboxamide]: the inhibition at 0.5 µM turned out to be 99%.

The assay is the same for the next values; noted with them: at 1 μM; read-out: hAC percent inhibition.
In the case of `CCCCCCNC(=O)n1cc(-c2ccccc2)c(=O)n(C(=O)OCC(C)C)c1=O` [Example 26, Isobutyl 3-(hexylcarbamoyl)-2,6-dioxo-5-phenyl-pyrimidine-1-carboxylate], the inhibition at 1 µM amounted to 100%.
Regarding `CCCCCCNC(=O)n1cc(-c2ccc(C(F)(F)F)cc2)c(=O)[nH]c1=O` [Example 21, N-hexyl-2,4-dioxo-5-[4-(trifluoromethyl)phenyl]pyrimidine-1-carboxamide], the inhibition at 1 µM is 86%.
On to `CCCCCCNC(=O)n1cc(Cl)c(=O)n(C(=O)OCC(C)C)c1=O` [Example 30, Isobutyl 5-chloro-3-(hexylcarbamoyl)-2,6-dioxo-pyrimidine-1-carboxylate], for which the inhibition at 1 µM was 100%.
`CCCCCCNC(=O)n1cc(-c2ccc(OC)cc2)c(=O)[nH]c1=O` [Example 19, N-hexyl-5-(4-methoxyphenyl)-2,4-dioxo-pyrimidine-1-carboxamide]: the inhibition at 1 µM was determined as 52%.
With `O=C(NCCCCCc1ccccc1)n1ccc(=O)[nH]c1=O` [Example 33, 2,4-dioxo-N-(5-phenylpentyl)pyrimidine-1-carboxamide], the inhibition at 1 µM is 100%.
As for `CCCCCCNC(=O)n1cc(-c2ccc(F)cc2)c(=O)[nH]c1=O` [Example 18, 5-(4-fluorophenyl)-N-hexyl-2,4-dioxo-pyrimidine-1-carboxamide], the inhibition at 1 µM is 74%.
In the case of `CCCCCCNC(=O)n1cc(Br)c(=O)n(C)c1=O` [Example 25, 5-Bromo-N-hexyl-3-methyl-2,4-dioxo-pyrimidine-1-carboxamide], the inhibition at 1 µM is 96%.
Same read-out and setting: the figure for `CCCCCCNC(=O)n1cc(-c2ccc(C)cc2)c(=O)[nH]c1=O` [Example 20, N-hexyl-2,4-dioxo-5-(p-tolyl)pyrimidine-1-carboxamide] is 54%.
As to `CCCCCCNC(=O)n1cc(-c2cccnc2)c(=O)[nH]c1=O` [Example 31, N-hexyl-2,4-dioxo-5-(3-pyridyl)pyrimidine-1-carboxamide], the inhibition at 1 µM was 99%.
With `CCCCCCNC(=O)n1cc(-c2ccc3ccccc3c2)c(=O)[nH]c1=O` [Example 22, N-Hexyl-5-(2-naphthyl)-2,4-dioxo-pyrimidine-1-carboxamide], the inhibition at 1 µM was determined as 64%.

Staying with this assay, now noted: human acid ceramidase, 50 μM N-lauroyl ceramide, pH 4.5.
As for `CCCCCCNC(=O)n1cc(-c2ccccc2)c(=O)[nH]c1=O` [Example 14, N-hexyl-2,4-dioxo-5-phenyl-pyrimidine-1-carboxamide], inhibition was half-maximal at 155 nM (IC50).
Regarding `CCCCCCNC(=O)n1cc(Br)c(=O)n(C(=O)OCC(C)C)c1=O` [Example 24, Isobutyl 5-bromo-3-(hexylcarbamoyl)-2,6-dioxo-pyrimidine-1-carboxylate], the 50% inhibitory concentration (IC50) is 14 nM.
For the molecule `CCCCCCNC(=O)n1cc(Br)c(=O)n(C(=O)OC)c1=O` [Example 23, Methyl 5-bromo-3-(hexylcarbamoyl)-2,6-dioxo-pyrimidine-1-carboxylate], the IC50 was 270 nM.

The subject of the next assay is SW403 cells. Kind of assay: SW403 cell viability, MTT assay. It is filed as cell-based, human. The settings on record: sub-chronic treatment 72 hrs; compounds 30 μM, 5FU 300 nM. How it is done: Cells were seeded in 12- or 96-well plates in complete medium 24 hrs before treatment and then incubated for 24 hrs (single treatment) or 72 hrs (multiple treatments) with different drug concentrations in media without serum. Cell viability was then evaluated.
Alternatively, cell viability was assessed measuring mitochondrial functionality by the MIT assay, which is based on the reduction of the soluble tetrazolium salt MTT [(3-(4,5-dimethylthiazol-2-yl)-2,5-diphenyltetrazolium bromide] into insoluble formazan by mitochondria. Briefly, after treatment, cells were washed with PBS and incubated with 0.5 mg/ml, MTT for 2 hrs at room temperature, MTT reduction was quantified by absorbance at 570 nm using a UV-visible plate reader.
In general terms: Formazan colour is commonly taken as a measure of viable cells.
In the case of `O=c1[nH]cc(F)c(=O)[nH]1` [5-fluorouracil, reference compound], the “SW403 cell viability (MTT assay)” value is “reduced cell viability”.
